Marks after values point to notes of the source that are not given here.
How the values were obtained:
hM5 = biological target: T1, hM5 (Homo sapiens, UniProt P08912); assay: Calcium mobilization assay with hM5-CHO cells, EC80 acetylcholine; assay type: cell-based; settings: for hM5 IC50: antagonist
T1 sequence (P08912 1-532): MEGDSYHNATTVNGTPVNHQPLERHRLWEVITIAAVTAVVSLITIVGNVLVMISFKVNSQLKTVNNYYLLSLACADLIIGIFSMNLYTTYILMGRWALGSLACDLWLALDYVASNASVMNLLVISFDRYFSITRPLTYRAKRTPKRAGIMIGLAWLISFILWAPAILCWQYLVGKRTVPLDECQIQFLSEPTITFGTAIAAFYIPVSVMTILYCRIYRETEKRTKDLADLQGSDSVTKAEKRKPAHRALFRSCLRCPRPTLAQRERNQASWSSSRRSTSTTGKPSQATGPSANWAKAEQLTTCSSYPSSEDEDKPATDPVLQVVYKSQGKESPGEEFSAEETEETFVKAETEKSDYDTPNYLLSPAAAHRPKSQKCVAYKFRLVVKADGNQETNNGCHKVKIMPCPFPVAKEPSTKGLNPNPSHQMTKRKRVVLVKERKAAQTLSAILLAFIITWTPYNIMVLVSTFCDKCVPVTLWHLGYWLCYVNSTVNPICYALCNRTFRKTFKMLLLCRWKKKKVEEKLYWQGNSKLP

In vitro clearance [1] = assay type: in vitro ADME, human; settings: for Predicted CLhep: human (h)
In vitro clearance [2] = assay type: in vitro ADME, rat; settings: for Predicted CLhep: rat (r)
hM2 = biological target: T2, hM2 (Homo sapiens, UniProt P08172); assay: Subtype selectivity, hM2; assay type: cell-based; settings: printed as hM2-4
T2 sequence (P08172 1-466): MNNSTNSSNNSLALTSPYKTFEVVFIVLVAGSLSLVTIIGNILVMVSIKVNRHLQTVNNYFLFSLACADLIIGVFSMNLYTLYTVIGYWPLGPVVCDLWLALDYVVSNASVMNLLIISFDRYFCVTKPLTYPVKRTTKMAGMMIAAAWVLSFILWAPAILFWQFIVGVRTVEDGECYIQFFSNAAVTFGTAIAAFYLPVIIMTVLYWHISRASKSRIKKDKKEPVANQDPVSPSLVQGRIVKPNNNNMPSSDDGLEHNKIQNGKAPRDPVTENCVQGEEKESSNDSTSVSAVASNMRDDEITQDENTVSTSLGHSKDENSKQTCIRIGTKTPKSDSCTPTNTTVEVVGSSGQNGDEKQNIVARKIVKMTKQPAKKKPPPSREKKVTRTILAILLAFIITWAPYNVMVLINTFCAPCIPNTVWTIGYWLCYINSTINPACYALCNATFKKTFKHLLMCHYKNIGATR

hM3 = hM3 (Homo sapiens, UniProt P20309); assay: Subtype selectivity, hM3; assay type: cell-based; settings: printed as hM2-4
Chain of hM3 (P20309 whole entry): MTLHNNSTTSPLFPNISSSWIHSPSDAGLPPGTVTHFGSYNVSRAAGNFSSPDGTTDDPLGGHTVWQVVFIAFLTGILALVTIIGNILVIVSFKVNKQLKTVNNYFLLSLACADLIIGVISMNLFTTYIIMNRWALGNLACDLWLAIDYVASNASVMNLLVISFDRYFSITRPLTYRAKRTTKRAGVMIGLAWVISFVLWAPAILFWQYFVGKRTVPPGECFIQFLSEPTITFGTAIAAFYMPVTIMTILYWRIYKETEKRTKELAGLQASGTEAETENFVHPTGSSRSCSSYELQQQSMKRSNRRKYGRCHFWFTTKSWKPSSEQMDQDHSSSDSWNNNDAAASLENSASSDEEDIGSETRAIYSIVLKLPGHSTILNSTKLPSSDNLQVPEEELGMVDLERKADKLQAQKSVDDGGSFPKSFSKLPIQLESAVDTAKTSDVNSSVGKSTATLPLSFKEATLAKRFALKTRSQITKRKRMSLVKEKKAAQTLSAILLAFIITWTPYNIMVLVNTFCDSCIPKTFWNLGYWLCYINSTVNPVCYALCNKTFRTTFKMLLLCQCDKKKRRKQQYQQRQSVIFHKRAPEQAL

hM4 = biological target: T3, hM4 (Homo sapiens, UniProt P08173); assay: Subtype selectivity, hM4; assay type: cell-based
T3 sequence (P08173 1-479): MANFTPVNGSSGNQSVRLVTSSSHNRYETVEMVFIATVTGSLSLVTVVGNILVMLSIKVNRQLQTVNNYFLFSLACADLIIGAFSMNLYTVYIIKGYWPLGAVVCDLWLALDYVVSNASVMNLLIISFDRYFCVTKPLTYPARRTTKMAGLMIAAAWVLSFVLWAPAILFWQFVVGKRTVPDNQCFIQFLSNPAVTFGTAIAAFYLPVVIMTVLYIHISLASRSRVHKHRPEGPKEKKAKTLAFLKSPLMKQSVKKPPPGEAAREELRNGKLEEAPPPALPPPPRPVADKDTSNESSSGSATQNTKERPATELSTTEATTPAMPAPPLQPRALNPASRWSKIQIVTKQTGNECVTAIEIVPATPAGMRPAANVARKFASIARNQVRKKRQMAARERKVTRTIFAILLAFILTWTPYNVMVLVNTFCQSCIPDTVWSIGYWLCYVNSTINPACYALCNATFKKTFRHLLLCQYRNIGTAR

Structure (SMILES) | hM5 ACh Min (hM5) | Predicted CLhep (In vitro clearance [1]) | Predicted CLhep (In vitro clearance [2]) | further results
C[C@@H]1CN(S(=O)(=O)c2ccc3c(c2)CCO3)CC[C@@H]1C(=O)Nc1ccc2scnc2c1 (racemic) [(rac)-22] | 3^c % | 19 mL/min/kg | 62 mL/min/kg | –
C[C@H]1CN(S(=O)(=O)c2ccc3c(c2)CCO3)CC[C@@H]1C(=O)Nc1ccc2scnc2c1 (racemic) [(rac)-23] | 3^c % | 17 mL/min/kg | 61 mL/min/kg | –
C[C@@H]1C[C@H](C(=O)Nc2ccc3scnc3c2)CCN1S(=O)(=O)c1ccc2c(c1)CCO2 (racemic) [(rac)-24] | 2^c % | 19 mL/min/kg | 62 mL/min/kg | –
C[C@@H]1C[C@@H](C(=O)Nc2ccc3scnc3c2)CCN1S(=O)(=O)c1ccc2c(c1)CCO2 (racemic) [(rac)-25] | – | 18 mL/min/kg | 62 mL/min/kg | –
CC1COc2ccc(S(=O)(=O)N3CCC(C(=O)Nc4ccc5scnc5c4)CC3)cc21 (racemic) [(rac)-26] | – | 19 mL/min/kg | 66 mL/min/kg | –
Cc1nn(C)cc1S(=O)(=O)N1CC[C@H](C(=O)Nc2ccc3scnc3c2)[C@@H](F)C1 (racemic) [(rac)-30a] | – | 5 mL/min/kg | 55 mL/min/kg | –
Cn1ncc(S(=O)(=O)N2CC[C@H](C(=O)Nc3ccc4scnc4c3)[C@@H](F)C2)c1Cl (racemic) [(rac)-30b] | – | 4 mL/min/kg | 29 mL/min/kg | –
Cc1ncc(S(=O)(=O)N2CC[C@H](C(=O)Nc3ccc4scnc4c3)[C@@H](F)C2)s1 (racemic) [(rac)-30c] | – | 5 mL/min/kg | 37 mL/min/kg | –
O=C(Nc1ccc2occc2c1)C1CCN(S(=O)(=O)c2ccc3c(c2)CCO3)CC1 [28a] | inactive | – | – | hM5 IC50 (hM5): inactive
O=C(Nc1ccc2ncnn2c1)C1CCN(S(=O)(=O)c2ccc3c(c2)CCO3)CC1 [28b] | inactive | – | – | hM5 IC50 (hM5): inactive
O=C(Nc1ccc2nncn2c1)C1CCN(S(=O)(=O)c2ccc3c(c2)CCO3)CC1 [28c] | inactive | – | – | hM5 IC50 (hM5): inactive
O=C(Nc1cnc2sccc2c1)C1CCN(S(=O)(=O)c2ccc3c(c2)CCO3)CC1 [28d] | inactive | – | – | hM5 IC50 (hM5): inactive
O=C(Nc1ccc2nccnc2c1)C1CCN(S(=O)(=O)c2ccc3c(c2)CCO3)CC1 [28e] | inactive | – | – | hM5 IC50 (hM5): inactive
O=C(Nc1ccc2cccnc2c1)C1CCN(S(=O)(=O)c2ccc3c(c2)CCO3)CC1 [28f] | – | 17 mL/min/kg | 64 mL/min/kg | –
O=C(Nc1ccc2snnc2c1)C1CCN(S(=O)(=O)c2ccc3c(c2)CCO3)CC1 [28g] | – | 18 mL/min/kg | 64 mL/min/kg | –
O=C(Nc1ccc2scnc2c1)C1CCN(S(=O)(=O)c2ccc3ncsc3c2)CC1 [29a] | – | 13 mL/min/kg | 38 mL/min/kg | CLint scaled (In vitro clearance [1]; human): 13 mL/min/kg; CLint scaled (In vitro clearance [2]; rat): 38 mL/min/kg
O=C(Nc1ccc2scnc2c1)C1CCN(S(=O)(=O)c2ccc3ncccc3c2)CC1 [29b] | – | 10 mL/min/kg | 53 mL/min/kg | –
O=C(Nc1ccc2scnc2c1)C1CCN(S(=O)(=O)c2ccc(Cl)nc2)CC1 [29c] | 3^b % | 11 mL/min/kg | 33 mL/min/kg | –
Cc1ccc(S(=O)(=O)N2CCC(C(=O)Nc3ccc4scnc4c3)CC2)cn1 [29d] | – | 4 mL/min/kg | 27 mL/min/kg | –
O=C(Nc1ccc2scnc2c1)C1CCN(S(=O)(=O)c2cccnc2)CC1 [29e] | 2^b % | 10 mL/min/kg | 52 mL/min/kg | –
Cc1nn(C)cc1S(=O)(=O)N1CCC(C(=O)Nc2ccc3scnc3c2)CC1 [29f] | – | – | 28 mL/min/kg | –
O=C(Nc1ccc2scnc2c1)C1CCN(S(=O)(=O)c2ccc(Cl)s2)CC1 [compound 4] | – | – | – | hM2 IC50 (hM2): inactive; hM3 IC50 (hM3): inactive; hM4 IC50 (hM4): inactive
Cn1ccnc1NC(=O)C1CCN(S(=O)(=O)c2ccc3c(c2)CCO3)CC1 [compound 6] | – | – | – | hM5 IC50 (hM5): inactive
Cc1nc2cc(NC(=O)C3CCN(S(=O)(=O)c4ccc5c(c4)CCO5)CC3)ccc2s1 [compound 20] | 19^c % | 16 mL/min/kg | 60 mL/min/kg | –

Reference: publication PMC10939060 (Bioorganic & medicinal chemistry letters, 2022)
